One test has as its system GABAA receptor transmembrane anesthetic binding sites.
Assay: not given
Particulars: cited from earlier work.
`C=CC[C@@]1(c2cccc(C3(C(F)(F)F)N=N3)c2)C(=O)NC(=O)N(C)C1=O`: the “Selectivity of photolabel for its respective class of binding sites” value is “more than 50 fold”.
Consider `CC(c1ccccc1)n1cncc1C(=O)OCCC1(C)N=N1` (stereo not drawn) [^3[H]azi-etomidate], for which the “Selectivity of photolabel for its respective class of binding sites” value is “more than 50 fold”.

In another test the target is α1β3γ2L GABAA receptors (β+ – α− sites) (Homo sapiens, UniProt P14867+P18507+P28472). The test can be described thus: Inhibition of ^3[H]azi-etomidate photoaffinity labeling of purified receptors. Particulars: read-out: IC50 for Inhibiting Photoaffinity Labeling by ^3[H]Azi-etomidate (95% CI); ~2 μM photolabel; 1 mM GABA (open/desensitized state). Format: binding.
Chain of α1β3γ2L GABAA receptors (β+ – α− sites) (P14867 28-456): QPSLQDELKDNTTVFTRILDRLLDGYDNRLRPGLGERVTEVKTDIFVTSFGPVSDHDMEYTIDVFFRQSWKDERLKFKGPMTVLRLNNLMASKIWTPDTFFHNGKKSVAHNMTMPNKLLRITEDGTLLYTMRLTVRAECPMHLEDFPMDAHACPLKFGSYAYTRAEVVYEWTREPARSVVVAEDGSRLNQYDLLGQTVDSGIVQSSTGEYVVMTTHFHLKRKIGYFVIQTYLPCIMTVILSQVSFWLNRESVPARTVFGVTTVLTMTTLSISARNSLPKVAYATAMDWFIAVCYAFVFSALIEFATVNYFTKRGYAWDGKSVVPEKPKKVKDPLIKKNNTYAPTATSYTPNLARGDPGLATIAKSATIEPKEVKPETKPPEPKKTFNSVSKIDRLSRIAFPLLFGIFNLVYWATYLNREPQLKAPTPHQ
Chain of α1β3γ2L GABAA receptors (β+ – α− sites) (P28472 26-473): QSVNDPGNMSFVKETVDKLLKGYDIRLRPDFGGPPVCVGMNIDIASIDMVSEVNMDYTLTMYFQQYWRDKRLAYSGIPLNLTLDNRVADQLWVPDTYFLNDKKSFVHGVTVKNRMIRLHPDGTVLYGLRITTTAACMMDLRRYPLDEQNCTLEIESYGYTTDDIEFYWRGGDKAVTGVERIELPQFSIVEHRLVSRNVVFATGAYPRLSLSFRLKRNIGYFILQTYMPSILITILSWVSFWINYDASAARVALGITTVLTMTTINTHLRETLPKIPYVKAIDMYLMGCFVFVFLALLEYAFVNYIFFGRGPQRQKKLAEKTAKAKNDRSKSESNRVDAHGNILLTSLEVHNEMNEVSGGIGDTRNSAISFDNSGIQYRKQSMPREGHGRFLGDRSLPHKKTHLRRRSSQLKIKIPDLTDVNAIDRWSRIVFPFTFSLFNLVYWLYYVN
Chain of α1β3γ2L GABAA receptors (β+ – α− sites) (P18507 40-475): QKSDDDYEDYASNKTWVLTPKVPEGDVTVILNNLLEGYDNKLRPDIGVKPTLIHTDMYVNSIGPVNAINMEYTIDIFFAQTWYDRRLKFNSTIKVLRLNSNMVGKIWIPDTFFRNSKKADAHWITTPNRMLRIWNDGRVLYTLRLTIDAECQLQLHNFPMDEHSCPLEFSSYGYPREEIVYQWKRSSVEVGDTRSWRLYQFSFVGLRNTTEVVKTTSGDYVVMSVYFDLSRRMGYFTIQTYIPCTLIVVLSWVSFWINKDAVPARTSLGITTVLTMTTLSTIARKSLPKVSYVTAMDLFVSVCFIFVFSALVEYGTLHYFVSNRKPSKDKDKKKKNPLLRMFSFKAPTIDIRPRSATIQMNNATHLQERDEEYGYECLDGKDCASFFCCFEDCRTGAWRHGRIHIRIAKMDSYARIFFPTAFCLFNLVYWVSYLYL
`CCOC(=O)c1cncn1C(C)c1ccc2ccccc2c1` (stereo not drawn) [Naphthalene2-etomidate]: the IC50 (as a rule, the midpoint of a concentration-inhibition curve) is 77 µM.
Still for that read-out and setting: under `CCOC(=O)c1cncn1[C@H](C)c1cccc(OC(C)C)c1` [m-Isopropoxy-etomidate] stands 210 µM; under `CCOC(=O)c1cncn1[C@H](C)c1ccc(Br)cc1` [p-Bromo-etomidate], 8.1 µM.
On to `CCOC(=O)c1cncn1[C@H](C)c1ccc(F)cc1` [p-Fluoro-etomidate], for which the IC50 came to 3.6 µM.
On the same count and under the same terms, in the case of `CCOC(=O)c1cncn1[C@H](C)c1ccc(OC)cc1` [p-Methoxy-etomidate] it was 75 µM; in that of m-Dimethoxy-etomidate, 830 µM.

The target in a further test is α1β3γ2L GABAA receptors (Homo sapiens, UniProt P14867+P18507+P28472).
Chain of α1β3γ2L GABAA receptors (P14867 28-456): as the sequence (P14867 28-456) above
Chain of α1β3γ2L GABAA receptors (P28472 26-473): as the sequence (P28472 26-473) above
Chain of α1β3γ2L GABAA receptors (P18507 40-475): as the sequence (P18507 40-475) above
Assay: not given
Format: cell-based. To be noted: 100 μM drug; wild-type receptors; n = 6 oocytes; EC5 GABA alone 4.4 ± 1.2%; P = 0.002.
On to `CCOC(=O)c1cncn1C(C)c1cccc2ccccc12` (stereo not drawn) [Naphthalene-etomidate], for which the “Peak amplitude of EC5 GABA-evoked current with drug” value is listed as 10 ± 2.4 % of the current produced by 1 mM GABA.
